# Data reported in patent publication US7297353B2, “Use of anemonin for treating aseptic inflammations” (priority 2000, dated 2007).
# Several values for one entry are separate records, joined by “and”; a condition that tells them apart may be missing. Equal values may be shown once.
# Legend:
# IFN-γ [1] = test: Cytokine production from splenocytes, Sac stimulation, IFN-γ (ELISA); format: cell-based, murine; details: 24 h
# Method: (§1) For splenocyte cytokine production assay, 5×10^6 cells per well were inoculated into a 24-well tissue culture plate with ConA (5 mg/L) or Sac (1:10000) stimulation. Different concentrations of Anemonin were added in a final volume of 2 ml. Cells were incubated at 37° C., 5% CO2 for 24 h and supernatants were harvested, IFN-γ, IL-10, IL12 (p40) and IL-2 in supernatants were measured by the sandwich enzyme-linked immunosorbent assay (ELISA) as specified by the manufacturer (BD Bioscience pharmingen, US). Concentrations of the cytokine productions were calculated based on standard curves obtained from serial dilutions of murine cytokines (r IFN-γ, rIL-10, rIL12, rIL-2). As shown in Tables C-3 and C-4, high-dose Anemonin (1-100 μg/ml) inhibited all kinds of cytokine release induced by ConA or Sac.
# [2] = tested on: staphylococcus, streptococcus, Bacillus diphtheriae, Mycobacterium tuberculosis, and E. coli; details: cited from earlier work
# IL-12(p40) = test: Cytokine production from splenocytes, Sac stimulation, IL-12(p40) (ELISA); format: cell-based, murine; details: 24 h
# Method: as §1
# [3] = In vitro percutaneous penetration velocity of anemonin; format: in vitro ADME; set-up: steady penetration velocity into derma: unit not given here; details: for Js: steady penetration velocity / Q24: cumulative amount of percutaneous penetration medicament per square centimeter for 24 hours / Tlag: time lag: n = 3
# IL-10 = test: Cytokine production from splenocytes, Sac stimulation, IL-10 (ELISA); format: cell-based, murine; details: 24 h
# Method: as §1
# [4] = Stability test for prolonged storage; format: physicochemical; details: anemonin in the present medication
# Description: According to preferred embodiments of the present invention, when the extracted anemonin or anemonin extract liquor is mixed with one or more Chinese herbs or chemical pharmaceuticals, the stability of the anemonin is not affected by the combined Chinese herbs, chemical components contained therein or the pharmaceuticals, and the amenonin can still effectively treat various aseptic inflammations.
# IFN-γ [5] = test: Cytokine production from splenocytes, ConA stimulation, IFN-γ (ELISA); format: cell-based, murine; details: 24 h
# Method: as §1
# injured skin = test: Effect of anemonin on the injured skin in mice (visual irritation score); format: in vivo, ICR mice; set-up: Irritation Score: scale not given here
# Method: ICR mice were utilized for the studies. The dorsal hair of mice was cut and injured 24 hour before experiment. 25% ethanol (0.5 ml) and the liniment solution of anemonin (0.05, 0.5, 5 mg/ml, 0.5 ml) were coated 4 h a day for 7 days on the area of hairless which was 2×2 cm^2 per mice. The skin irritation was evaluated by visual scoring (Table C-3 and C-4) everyday. The mice were continuously observed for 7 days after stopping applying. […] The injured skin of application 0.5 mg/ml anemonin also healed up within 7 days.
# [6] = 0.05 mg/ml on injured skin, Day 1, Treatment
# [7] = 0.05 mg/ml on injured skin, Day 2, Treatment
# [8] = 0.05 mg/ml on injured skin, Day 3, Treatment
# [9] = 0.05 mg/ml on injured skin, Day 4, Treatment
# [10] = 0.05 mg/ml on injured skin, Day 5, Treatment
# [11] = 0.05 mg/ml on injured skin, Day 6, Treatment
# [12] = 0.05 mg/ml on injured skin, Day 7, Treatment
# [13] = 0.05 mg/ml on injured skin, Day 8, Observation
# [14] = 0.05 mg/ml on injured skin, Day 9, Observation
# [15] = 0.05 mg/ml on injured skin, Day 10, Observation
# [16] = 0.05 mg/ml on injured skin, Day 11, Observation
# [17] = 0.05 mg/ml on injured skin, Day 12, Observation
# [18] = 0.05 mg/ml on injured skin, Day 13, Observation
# [19] = 0.05 mg/ml on injured skin, Day 14, Observation
# [20] = 0.5 mg/ml on injured skin, Day 1, Treatment
# [21] = 0.5 mg/ml on injured skin, Day 2, Treatment
# [22] = 0.5 mg/ml on injured skin, Day 3, Treatment
# [23] = 0.5 mg/ml on injured skin, Day 4, Treatment
# [24] = 0.5 mg/ml on injured skin, Day 5, Treatment
# [25] = 0.5 mg/ml on injured skin, Day 6, Treatment
# [26] = 0.5 mg/ml on injured skin, Day 7, Treatment
# [27] = 0.5 mg/ml on injured skin, Day 8, Observation
# [28] = 0.5 mg/ml on injured skin, Day 9, Observation
# [29] = 0.5 mg/ml on injured skin, Day 10, Observation
# [30] = 0.5 mg/ml on injured skin, Day 11, Observation
# [31] = 0.5 mg/ml on injured skin, Day 12, Observation
# [32] = 0.5 mg/ml on injured skin, Day 13, Observation
# [33] = 0.5 mg/ml on injured skin, Day 14, Observation
# [34] = 5 mg/ml on injured skin, Day 2, Treatment
# [35] = 5 mg/ml on injured skin, Day 3, Treatment
# [36] = 5 mg/ml on injured skin, Day 4, Treatment
# [37] = 5 mg/ml on injured skin, Day 5, Treatment
# [38] = 5 mg/ml on injured skin, Day 6, Treatment
# [39] = 5 mg/ml on injured skin, Day 7, Treatment
# [40] = 5 mg/ml on injured skin, Day 8, Observation
# [41] = 5 mg/ml on injured skin, Day 9, Observation
# [42] = 5 mg/ml on injured skin, Day 10, Observation
# [43] = 5 mg/ml on injured skin, Day 11, Observation
# [44] = 5 mg/ml on injured skin, Day 12, Observation
# [45] = 5 mg/ml on injured skin, Day 13, Observation
# [46] = 5 mg/ml on injured skin, Day 14, Observation
smiles,measurement,setting,value
"O=C1C=CC2(CCC23C=CC(=O)O3)O1 (centres unmarked) [Anemonin, anemonin]",IFN-γ,IFN-γ [1]; 0.001 μg/ml,237 ± 3 pg/mL
same,IFN-γ,IFN-γ [1]; 0.01 μg/ml,230 ± 23 pg/mL
same,IFN-γ,IFN-γ [1]; 0.1 μg/ml,143 ± 0 pg/mL
same,IFN-γ,IFN-γ [1]; 1 μg/ml,95 ± 2 pg/mL
same,IFN-γ,IFN-γ [1]; 10 μg/ml,98 ± 7 pg/mL
same,IFN-γ,IFN-γ [1]; 100 μg/ml,89 ± 2 pg/mL
same,inhibitory against bacteria,[2],inhibitory
same,IL-12(p40),IL-12(p40); 0.001 μg/ml,501 ± 6 pg/mL
same,IL-12(p40),IL-12(p40); 0.01 μg/ml,446 ± 0 pg/mL
same,IL-12(p40),IL-12(p40); 0.1 μg/ml,444 ± 3 pg/mL
same,IL-12(p40),IL-12(p40); 1 μg/ml,293 ± 0 pg/mL
same,IL-12(p40),IL-12(p40); 10 μg/ml,86 ± 6 pg/mL
same,IL-12(p40),IL-12(p40); 100 μg/ml,72 ± 4 pg/mL
same,ER: increased permeation times,[3]; 30% ethanol solution,2.0
same,Js: steady penetration velocity,[3]; 30% ethanol solution,4.65 ± 0.47 μg · cm^−2 · h^−1
same,Q24: cumulative amount of percutaneous penetration medicament per square centimeter for 24 hours,[3]; 30% ethanol solution,104.45 ± 12.58 μg · cm^−2
same,Tlag: time lag,[3]; 30% ethanol solution,1.09 ± 0.20 h
same,steady penetration velocity into derma,[3]; 30% of ethanol,4.65
same,ER: increased permeation times,[3]; water-saturated solution,1.0
same,Js: steady penetration velocity,[3]; water-saturated solution,2.28 μg · cm^−2 · h^−1 and 2.28 ± 0.39 μg · cm^−2 · h^−1
same,Q24: cumulative amount of percutaneous penetration medicament per square centimeter for 24 hours,[3]; water-saturated solution,50.49 ± 6.48 μg · cm^−2
same,Tlag: time lag,[3]; water-saturated solution,2.05 ± 0.74 h
same,IL-10,IL-10; 0.001 μg/ml,1242 ± 46 pg/mL
same,IL-10,IL-10; 0.01 μg/ml,1235 ± 19 pg/mL
same,IL-10,IL-10; 0.1 μg/ml,1229 ± 9 pg/mL
same,IL-10,IL-10; 1 μg/ml,749 ± 64 pg/mL
same,IL-10,IL-10; 10 μg/ml,249 ± 0 pg/mL
same,IL-10,IL-10; 100 μg/ml,274 ± 18 pg/mL
same,stability on prolonged storage,[4],at least 5 years
same,IFN-γ,IFN-γ [5]; 0.001 μg/ml,2405 ± 171 pg/mL
same,IFN-γ,IFN-γ [5]; 0.01 μg/ml,2651 ± 120 pg/mL
same,IFN-γ,IFN-γ [5]; 0.1 μg/ml,2298 ± 4 pg/mL
same,IFN-γ,IFN-γ [5]; 1 μg/ml,508 ± 16 pg/mL
same,IFN-γ,IFN-γ [5]; 10 μg/ml,94 ± 0 pg/mL
same,IFN-γ,IFN-γ [5]; 100 μg/ml,89 ± 3 pg/mL
same,Irritation Grade,injured skin; [6],No (No irritation <0.5)
same,Irritation Score,injured skin; [6],0
same,Irritation Grade,injured skin; [7],No (No irritation <0.5)
same,Irritation Score,injured skin; [7],0
same,Irritation Grade,injured skin; [8],No (No irritation <0.5)
same,Irritation Score,injured skin; [8],0
same,Irritation Grade,injured skin; [9],No (No irritation <0.5)
same,Irritation Score,injured skin; [9],0
same,Irritation Grade,injured skin; [10],No (No irritation <0.5)
same,Irritation Score,injured skin; [10],0
same,Irritation Grade,injured skin; [11],No (No irritation <0.5)
same,Irritation Score,injured skin; [11],0
same,Irritation Grade,injured skin; [12],No (No irritation <0.5)
same,Irritation Score,injured skin; [12],0
same,Irritation Grade,injured skin; [13],No (No irritation <0.5)
same,Irritation Score,injured skin; [13],0
same,Irritation Grade,injured skin; [14],No (No irritation <0.5)
same,Irritation Score,injured skin; [14],0
same,Irritation Grade,injured skin; [15],No (No irritation <0.5)
same,Irritation Score,injured skin; [15],0
same,Irritation Grade,injured skin; [16],No (No irritation <0.5)
same,Irritation Score,injured skin; [16],0
same,Irritation Grade,injured skin; [17],No (No irritation <0.5)
same,Irritation Score,injured skin; [17],0
same,Irritation Grade,injured skin; [18],No (No irritation <0.5)
same,Irritation Score,injured skin; [18],0
same,Irritation Grade,injured skin; [19],No (No irritation <0.5)
same,Irritation Score,injured skin; [19],0
same,Irritation Grade,injured skin; [20],Mild (Mide irritation <2.09)
same,Irritation Score,injured skin; [20],1
same,Irritation Grade,injured skin; [21],No (No irritation <0.5)
same,Irritation Score,injured skin; [21],0.25
same,Irritation Grade,injured skin; [22],No (No irritation <0.5)
same,Irritation Score,injured skin; [22],0.25
same,Irritation Grade,injured skin; [23],No (No irritation <0.5)
same,Irritation Score,injured skin; [23],0.25
same,Irritation Grade,injured skin; [24],No (No irritation <0.5)
same,Irritation Score,injured skin; [24],0.125
same,Irritation Grade,injured skin; [25],No (No irritation <0.5)
same,Irritation Score,injured skin; [25],0
same,Irritation Grade,injured skin; [26],No (No irritation <0.5)
same,Irritation Score,injured skin; [26],0
same,Irritation Grade,injured skin; [27],No (No irritation <0.5)
same,Irritation Score,injured skin; [27],0
same,Irritation Grade,injured skin; [28],No (No irritation <0.5)
same,Irritation Score,injured skin; [28],0
same,Irritation Grade,injured skin; [29],No (No irritation <0.5)
same,Irritation Score,injured skin; [29],0
same,Irritation Grade,injured skin; [30],No (No irritation <0.5)
same,Irritation Score,injured skin; [30],0
same,Irritation Grade,injured skin; [31],No (No irritation <0.5)
same,Irritation Score,injured skin; [31],0
same,Irritation Grade,injured skin; [32],No (No irritation <0.5)
same,Irritation Score,injured skin; [32],0
same,Irritation Grade,injured skin; [33],No (No irritation <0.5)
same,Irritation Score,injured skin; [33],0
same,Irritation Grade,"injured skin; 5 mg/ml on injured skin, Day 1, Treatment",Moderate (Moderate irritation <6.0)
same,Irritation Grade,injured skin; [34],Moderate (Moderate irritation <6.0)
same,Irritation Score,injured skin; [34],3.4
same,Irritation Grade,injured skin; [35],Moderate (Moderate irritation <6.0)
same,Irritation Score,injured skin; [35],3.3
same,Irritation Grade,injured skin; [36],Moderate (Moderate irritation <6.0)
same,Irritation Score,injured skin; [36],3.3
same,Irritation Grade,injured skin; [37],Moderate (Moderate irritation <6.0)
same,Irritation Score,injured skin; [37],3.3
same,Irritation Grade,injured skin; [38],Moderate (Moderate irritation <6.0)
same,Irritation Score,injured skin; [38],4
same,Irritation Grade,injured skin; [39],Moderate (Moderate irritation <6.0)
same,Irritation Score,injured skin; [39],4
same,Irritation Grade,injured skin; [40],Moderate (Moderate irritation <6.0)
same,Irritation Score,injured skin; [40],4
same,Irritation Grade,injured skin; [41],Moderate (Moderate irritation <6.0)
same,Irritation Score,injured skin; [41],4
same,Irritation Grade,injured skin; [42],Moderate (Moderate irritation <6.0)
same,Irritation Score,injured skin; [42],3.5
same,Irritation Grade,injured skin; [43],Moderate (Moderate irritation <6.0)
same,Irritation Score,injured skin; [43],3
same,Irritation Grade,injured skin; [44],Moderate (Moderate irritation <6.0)
same,Irritation Score,injured skin; [44],2.5
same,Irritation Grade,injured skin; [45],Mild (Mide irritation <2.09)
same,Irritation Score,injured skin; [45],2
same,Irritation Grade,injured skin; [46],Mild (Mide irritation <2.09)
same,Irritation Score,injured skin; [46],2
same,Irritation Score,"injured skin; 5 mg/ml, 0.5 ml, 4 h a day for 7 days on injured skin, Day 1, Treatment",3.1
same,irritation on injured skin,injured skin; application of 0.05 mg/ml,did not cause any irritation
same,irritation on injured skin,"injured skin; application of 0.5 mg/ml, after 24 h application, then began to alleviate",slight erythema
same,irritation on injured skin,injured skin; application of 5 mg/ml,mild to moderate erythema
